Experiment in all cases: Postemergence herbicidal activity, greenhouse trial (visual injury 0-100%)
Assay type in all cases: in vivo

Test [1] relates to wild pansy (Viola tricolor, VIOTR). Conditions: Viola tricolor, post-emergence, read-out: % visual injury Obs. Summed up:
(§1)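 Seedlings were raised 7-36 d in a greenhouse, then treated postemergence at the second or third true leaf stage. Mixtures were applied overhead at 187 L/ha, and plants were sub-irrigated to avoid wash-off. Injury was rated visually 20-22 d later.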

Test [2] has as its system winter rape (Brassica napus, BRSNW).
For test [3], the system named is sunflower (Helianthus annuus, HELAN). Conditions: HELAN; bensulfuron 17.5 g ai/ha.
Test [4] deals with brown mustard (Brassica juncea, BRSJU). Conditions: bensulfuron 17.5 g ai/ha.
Test [5] has as its system thistle (Cirsium arvense, CIRAR). To be noted: Cirsium arvense, post-emergence; 17.5 g ai/ha; read-out: % visual injury Obs. Put shortly: as §1
Test [6] relates to barnyardgrass (Echinochloa crus-galli, ECHCG). To be noted: Echinochloa crus-galli, post-emergence, 17.5 g ai/ha; read-out: % visual injury Obs. Summed up: as §1
Test [7] deals with blackgrass (Alopecurus myosuroides, ALOMY). Conditions: 17.5 g ai/ha. Summed up: as §1
The subject of test [8] is wild oat (Avena fatua, AVEFA). Conditions: 17.5 g ai/ha. Put shortly:
as §1

In test [9] the test system is rutabaga (Brassica napus var. napobrassica, BRSNA). Conditions: 17.5 g ai/ha. On the procedure:
Seeds of the desired test plant species were planted in Sun Gro MetroMix® 306 planting mixture, which typically has a pH of 6.0 to 6.8 and an organic matter content of about 30 percent, in plastic pots with a surface area of 103.2 square centimeters (cm^2). […] The plants were grown for 7-36 days (d) in a greenhouse with an approximate 14-hour (h) photoperiod which was maintained at about 23° C. during the day and 22° C. during the night. Nutrients and water were added on a regular basis and supplemental lighting was provided with overhead metal halide 1000-Watt lamps as necessary. The plants were employed for testing when they reached the second or third true leaf stage.
Weighed amounts of technical material were dissolved in a volume of 97:3 volume per volume (v/v) acetone/dimethyl sulfoxide (DMSO) to stock solutions. […] The concentrated stock solutions were diluted with an aqueous mixture of 1.5% v/v of Agri-dex crop oil concentrate to provide the appropriate application rates. Compound requirements are based upon a 12 milliliter (mL) application volume at a rate of 187 liters per hectare (L/ha). Spray solutions of the experimental compound mixtures were prepared by adding the stock solutions to the appropriate amount of dilution solution to form a 12 mL spray solution in two-way combinations. Formulated compounds were applied to the plant material with an overhead Mandel track sprayer equipped with 8002E nozzles calibrated to deliver 187 L/ha over an application area of 0.503 square meters (m^2) at a spray height of 18 inches (43 centimeters (cm)) above average plant canopy. Control plants were sprayed in the same manner with the solvent blank. Application rates for component (a) are in g ae/ha, and application rates for component (b) are in g ai/ha.
The treated plants and control plants were placed in a greenhouse as described above and watered by sub-irrigation to prevent wash-off of the test compounds. After 20-22 d, the condition of the test plants as compared with that of the control plants was determined visually and scored on a scale of 0 to 100 percent where 0 corresponds to no injury and 100 corresponds to complete kill. The condition of the test plants was compared with that of the control plants as determined visually and scored on a scale of 0 to 100 percent, where 0 corresponds to no injury and 100 corresponds to complete kill. Colby's equation was used to determine the herbicidal effects expected from the mixtures.
Compound 1 was formulated as an EC and was combined with imazamox, imazamethabenz, imazapic, imazapyr or imazethapyr. The mixtures were applied to winter wheat (TRZAW) and/or maize (ZEAMX), and the phytotoxicity of the herbicidal compositions was measured. In addition, the efficacy of the herbicidal compositions on blackgrass (Alopecurus myosuroides, ALOMY), wild oat (Avena fatua, AVEFA), winter rape (Brassica napus, BRSNW), spring rape (Brassica napus, BRSNN), turnip (Brassica rapa, BRSRR), thistle (Cirsium arvense, CIRAR), large crabgrass (Digitaria sanguinalis, DIGSA), pigweed (Amaranthus retrollexus, AMARE), common lambsquarters (Chenopodium album L., CHEAL), poinsettia (Euphorbia heterophylla, EPHHL), ivyleaf morning-glory (Ipomoea hederacea, IPOHE), kochia (Kochia scoparia, KCHSC), wild buckwheat (Polygonum convolvulus, POLCO), grain sorghum (Sorghum vulgare, SORVU), chickweed (Stellaria media, STEME), wild pansy (Viola tricolor, VIOTR), sunflower (Helianthus annuus, HELAN), giant foxtail (Setaria faberi, SETFA), soybean (Glycine max, GLXMA), rutabaga (Brassica napus var. napobrassica, BRSNA) and barnyardgrass (Echinochloa crus-galli, ECHCG) was evaluated.

For test [10], the system named is large crabgrass (Digitaria sanguinalis, DIGSA). Conditions: 17.5 g ai/ha.

Like-named read-outs stand apart in the source and are kept apart here.

Regarding `COC(=O)c1ccccc1CS(=O)(=O)NC(=O)Nc1nc(OC)cc(OC)n1`, the pest or weed control at 17.5 g/ha in test [1] (VIOTR, bensulfuron 17.5 g ai/ha) was found to be 0%. The “% visual injury Obs” value in [2] (BRSNW, bensulfuron 17.5 g ai/ha) stood at 70%; in test [3], 10%; in test [4], 93%.

Take `CCc1cnc(C2=NC(C)(C(C)C)C(=O)N2)c(C(=O)O)c1` (stereo not drawn) [Imazethapyr, imazethapyr]: the pest or weed control at 17.5 g/ha in test [5] turned out to be 30%; in [6] it was 70%; in [1] (17.5 g ai/ha) it was 5%. The “% visual injury Obs” value in test [7] is given as 10%; in test [8], 10%; in test [9], 20%; in [2] (17.5 g ai/ha), 75%; in test [10] it was 30%.
